Data: the NIST ThermoML archive (doi:10.1021/acs.jced.8b00403)
± gives the expanded uncertainty stated by the source.

Assay: wn = mass fraction of the nth substance listed
Conditions: 101.33 kPa, Liquid; for viscosity: Concentric cylinders viscometry; for mass density: Vibrating tube method

Compound `CC(O)CO` (stereo unspecified) [1,2-propanediol] + O has a viscosity (303.15 K, w1 = 0.0988) of 1.148 ± 0.34 mPa·s, a viscosity (303.15 K, w1 = 0.198) of 1.599 ± 0.48 mPa·s and a viscosity (303.15 K, w1 = 0.3312) of 2.503 ± 0.75 mPa·s. It also gave a viscosity (303.15 K, w1 = 0.5005) of 4.51 ± 1.4 mPa·s, a viscosity (303.15 K, w1 = 0.672) of 8.01 ± 2.4 mPa·s and a viscosity (303.15 K, w1 = 0.8044) of 13.28 ± 4 mPa·s. The viscosity (303.15 K, w1 = 0.9481) was 26.09 ± 7.8 mPa·s, the viscosity (303.15 K, w1 = 1) was 33.26 ± 10 mPa·s and the mass density (303.15 K, w1 = 0.0988) was 1002.6 ± 8 kg/m3. For the same compound, the mass density (303.15 K, w1 = 0.198) was 1010.6 ± 8 kg/m3, the mass density (303.15 K, w1 = 0.3312) was 1021 ± 8 kg/m3 and the mass density (303.15 K, w1 = 0.5005) was 1031.4 ± 8 kg/m3. For the same compound, the mass density (303.15 K, w1 = 0.672) was 1035.9 ± 8 kg/m3, the mass density (303.15 K, w1 = 0.8044) was 1035.4 ± 8 kg/m3 and the mass density (303.15 K, w1 = 0.9481) was 1030.8 ± 8 kg/m3. For the same compound, the mass density (303.15 K, w1 = 1) was 1028.1 ± 8 kg/m3, the viscosity (313.15 K, w1 = 0.0988) was 0.9194 ± 0.28 mPa·s and the viscosity (313.15 K, w1 = 0.198) was 1.241 ± 0.37 mPa·s. The viscosity (313.15 K, w1 = 0.3312) was 1.858 ± 0.56 mPa·s, the viscosity (313.15 K, w1 = 0.5005) was 3.166 ± 0.95 mPa·s and the viscosity (313.15 K, w1 = 0.672) was 5.398 ± 1.6 mPa·s. It also gave a viscosity (313.15 K, w1 = 0.8044) of 8.638 ± 2.6 mPa·s, a viscosity (313.15 K, w1 = 0.9481) of 16 ± 4.8 mPa·s and a viscosity (313.15 K, w1 = 1) of 19.92 ± 6 mPa·s. The mass density (313.15 K, w1 = 0.0988) was 999 ± 8 kg/m3, the mass density (313.15 K, w1 = 0.198) was 1006 ± 8 kg/m3 and the mass density (313.15 K, w1 = 0.3312) was 1015.3 ± 8 kg/m3. It also gave a mass density (313.15 K, w1 = 0.5005) of 1024.5 ± 8 kg/m3, a mass density (313.15 K, w1 = 0.672) of 1028.4 ± 8 kg/m3 and a mass density (313.15 K, w1 = 0.8044) of 1027.8 ± 8 kg/m3. It also gave a mass density (313.15 K, w1 = 0.9481) of 1023.2 ± 8 kg/m3, a mass density (313.15 K, w1 = 1) of 1020.6 ± 8 kg/m3 and a viscosity (323.15 K, w1 = 0.0988) of 0.7541 ± 0.23 mPa·s. The viscosity (323.15 K, w1 = 0.198) was 0.9933 ± 0.3 mPa·s, the viscosity (323.15 K, w1 = 0.3312) was 1.436 ± 0.43 mPa·s and the viscosity (323.15 K, w1 = 0.5005) was 2.345 ± 0.7 mPa·s. It also gave a viscosity (323.15 K, w1 = 0.672) of 3.852 ± 1.2 mPa·s, a viscosity (323.15 K, w1 = 0.8044) of 5.938 ± 1.8 mPa·s and a viscosity (323.15 K, w1 = 0.9481) of 10.4 ± 3.1 mPa·s. For the same compound, the viscosity (323.15 K, w1 = 1) was 12.68 ± 3.8 mPa·s, the mass density (323.15 K, w1 = 0.0988) was 994.4 ± 8 kg/m3 and the mass density (323.15 K, w1 = 0.198) was 1000.8 ± 8 kg/m3. The mass density (323.15 K, w1 = 0.3312) was 1009.2 ± 8 kg/m3, the mass density (323.15 K, w1 = 0.5005) was 1017.4 ± 8 kg/m3 and the mass density (323.15 K, w1 = 0.672) was 1020.8 ± 8 kg/m3. The mass density (323.15 K, w1 = 0.8044) was 1020.1 ± 8 kg/m3, the mass density (323.15 K, w1 = 0.9481) was 1015.6 ± 8 kg/m3 and the mass density (323.15 K, w1 = 1) was 1013 ± 8 kg/m3. It also gave a viscosity (333.15 K, w1 = 0.0988) of 0.6304 ± 0.19 mPa·s, a viscosity (333.15 K, w1 = 0.198) of 0.8167 ± 0.25 mPa·s and a viscosity (333.15 K, w1 = 0.3312) of 1.145 ± 0.34 mPa·s. For the same compound, the viscosity (333.15 K, w1 = 0.5005) was 1.802 ± 0.54 mPa·s, the viscosity (333.15 K, w1 = 0.672) was 2.852 ± 0.86 mPa·s and the viscosity (333.15 K, w1 = 0.8044) was 4.247 ± 1.3 mPa·s. The viscosity (333.15 K, w1 = 0.9481) was 7.094 ± 2.1 mPa·s, the viscosity (333.15 K, w1 = 1) was 8.498 ± 2.5 mPa·s and the mass density (333.15 K, w1 = 0.0988) was 989.3 ± 8 kg/m3. For the same compound, the mass density (333.15 K, w1 = 0.198) was 995.4 ± 8 kg/m3, the mass density (333.15 K, w1 = 0.3312) was 1002.7 ± 8 kg/m3 and the mass density (333.15 K, w1 = 0.5005) was 1010 ± 8 kg/m3. The mass density (333.15 K, w1 = 0.672) was 1013 ± 8 kg/m3, the mass density (333.15 K, w1 = 0.8044) was 1012.2 ± 8 kg/m3 and the mass density (333.15 K, w1 = 0.9481) was 1007.8 ± 8 kg/m3. For the same compound, the mass density (333.15 K, w1 = 1) was 1005.3 ± 8 kg/m3, the viscosity (343.15 K, w1 = 0.0988) was 0.5375 ± 0.16 mPa·s and the viscosity (343.15 K, w1 = 0.198) was 0.6869 ± 0.21 mPa·s. For the same compound, the viscosity (343.15 K, w1 = 0.3312) was 0.9408 ± 0.28 mPa·s, the viscosity (343.15 K, w1 = 0.5005) was 1.425 ± 0.43 mPa·s and the viscosity (343.15 K, w1 = 0.672) was 2.188 ± 0.66 mPa·s. It also gave a viscosity (343.15 K, w1 = 0.8044) of 3.161 ± 0.95 mPa·s, a viscosity (343.15 K, w1 = 0.9481) of 5.053 ± 1.5 mPa·s and a viscosity (343.15 K, w1 = 1) of 5.95 ± 1.8 mPa·s. For the same compound, the mass density (343.15 K, w1 = 0.0988) was 983.5 ± 8 kg/m3, the mass density (343.15 K, w1 = 0.198) was 989.2 ± 8 kg/m3 and the mass density (343.15 K, w1 = 0.3312) was 996 ± 8 kg/m3. It also gave a mass density (343.15 K, w1 = 0.5005) of 1002.3 ± 8 kg/m3, a mass density (343.15 K, w1 = 0.672) of 1004.9 ± 8 kg/m3 and a mass density (343.15 K, w1 = 0.8044) of 1004.1 ± 8 kg/m3. It also gave a mass density (343.15 K, w1 = 0.9481) of 999.8 ± 8 kg/m3, a mass density (343.15 K, w1 = 1) of 997.7 ± 8 kg/m3 and a viscosity (353.15 K, w1 = 0.0988) of 0.4666 ± 0.14 mPa·s. It also gave a viscosity (353.15 K, w1 = 0.198) of 0.5856 ± 0.18 mPa·s, a viscosity (353.15 K, w1 = 0.3312) of 0.7888 ± 0.24 mPa·s and a viscosity (353.15 K, w1 = 0.5005) of 1.162 ± 0.35 mPa·s. The viscosity (353.15 K, w1 = 0.672) was 1.733 ± 0.52 mPa·s, the viscosity (353.15 K, w1 = 0.8044) was 2.433 ± 0.73 mPa·s and the viscosity (353.15 K, w1 = 0.9481) was 3.734 ± 1.1 mPa·s. For the same compound, the viscosity (353.15 K, w1 = 1) was 4.332 ± 1.3 mPa·s, the mass density (353.15 K, w1 = 0.0988) was 977.2 ± 8 kg/m3 and the mass density (353.15 K, w1 = 0.198) was 982.5 ± 8 kg/m3. For the same compound, the mass density (353.15 K, w1 = 0.3312) was 988.9 ± 8 kg/m3, the mass density (353.15 K, w1 = 0.5005) was 994.6 ± 8 kg/m3 and the mass density (353.15 K, w1 = 0.672) was 996.9 ± 8 kg/m3. It also gave a mass density (353.15 K, w1 = 0.8044) of 996 ± 8 kg/m3, a mass density (353.15 K, w1 = 0.9481) of 991.9 ± 8 kg/m3 and a mass density (353.15 K, w1 = 1) of 989.5 ± 8 kg/m3.
